From patent US20250188151A1, “C-JUN ANTAGONIST PEPTIDES” (The University of Bath, priority 2022, published 2025)
Bridge positions count the residues as written; N and C are the ends. Peptide text beside a SMILES is read from it.

T1: cJun bZIP (human, UniProt P05412 252-308, limits assumed)
T1 construct: Purified from a His-SUMO fusion with the tag cleaved off; also called c-Jun bZIP domain; 60 amino acid c-Jun bZIP construct
T1 chain: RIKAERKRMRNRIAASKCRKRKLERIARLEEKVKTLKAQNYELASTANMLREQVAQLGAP

B1: HingeW variant peptide 15 (peptide)
peptide: Ac-EAKELVDEEDVLEEEIEQLEERNYALRKEIEDLQKQ-NH2
modifications: lactam 3-7
notes: Synthetic, NΔ20 CΔ7; also called cyclised form of 14/15
B2: HingeW variant peptide 13 (peptide)
peptide: Ac-KEAEDLVVEEDVLEEEIEQLEERNYALRKEIKDLQDQ-NH2
modifications: lactam (positions not given here); also: one i to i+4 K-D lactam bridge, pair not given here
notes: Synthetic, NΔ19 CΔ7; also called cyclised form of 12/13

How the values were obtained:
cJun/TRE DNA interaction = target: T2, cJun/TRE DNA interaction (Homo sapiens, UniProt P05412, S292Y); test: CD cJun/TRE DNA antagonism (shift of TRE DNA peak at ~281 nm, Hill fit); type: biochemical
T2 construct: The same 60 amino acid c-Jun bZIP construct was used for all experiments; His-SUMO (N, cleaved yes); made in house; host or cells: E. coli
Text: Briefly, in TBS the coding region for the essential gene dihydrofolate reductase (DHFR) is mutated to incorporate TRE sites so that introduction of c-Jun to this gene inside E. coli produces a transcriptional block that abrogates cell proliferation. The TRE site-bound c-Jun molecules sterically prevent RNA polymerase transcribing the essential gene and this can only be restored upon introduction of an effective c-Jun/TRE antagonist. Consequently, the survival of a particular cell is controlled by the ability of a peptide library member to remove the c-Jun transcriptional block and therefore to restore DHFR activity. TBS thus facilitates the identification of therapeutically valuable sequences. Further details for the TBS assay are provided in WO2020128015, which is incorporated herein by reference in its entirety. […] The TRE-DNA construct produces a positive CD peak at ˜281 nm, which decreases in intensity upon c-Jun binding. […] This method allows for the calculation of an IC50 value by fitting the titration data to a Hill equation. In some embodiments, the c-Jun antagonist is able to inhibit the DNA-binding activity of c-Jun within 10-fold of the ability of HingeW to inhibit the DNA-binding activity of c-Jun (e.g. the c-Jun antagonist has a reduced ability to inhibit the DNA-binding activity of c-Jun that is within 10-fold of that determined for HingeW). In some embodiments, the c-Jun antagonist is able to inhibit the DNA-binding activity of c-Jun within 9-fold, preferably within 8-fold, more preferably within 7-fold, even more preferably within 6-fold, yet more preferably within 5-fold of the ability of HingeW to inhibit the DNA-binding activity of c-Jun. The ability of the c-Jun antagonist and HingeW to inhibit the DNA-binding activity may be measured using the TBS assay (e.g. by quantifying the number of colonies) or by determining the IC50 using a circular dichroism assay described herein. Optionally, the c-Jun antagonist may have this activity when cross-linked. Methods for cross-linking peptides are described in more detail below.
Therefore, the acidic domain was the initial focus for optimisation. 1 was iteratively truncated (2-6) to investigate the effect on c-Jun binding and c-Jun/TRE DNA antagonism. […] Thermal denaturation experiments were then used to determine the Tm of peptide-c-Jun heterodimers, which was used as an approximate measure of target engagement. CD was also used to investigate the ability of the functional activity of peptides in antagonising the c-Jun/TRE DNA interaction. The TRE-DNA construct used produces a positive CD peak at ˜281 nm (no c-Jun absorbance at this wavelength allows for direct measurement of DNA upon binding) which decreases in intensity upon c-Jun binding. […] This allowed for the calculation of an IC50 value by fitting the titration data to a Hill equation. […] The same 60 amino acid c-Jun bZIP construct was used for all experiments, regardless of antagonist peptide length.

cJun bZIP [1] = target: cJun bZIP (Homo sapiens, UniProt P05412, S292Y); test: CD spectra and thermal denaturation of peptide/cJun heterodimers; conditions: for Tm (° C.): peptide (5 μM)/c-Jun (5 μM) heterodimer, Table 6
[2] = CD spectra and thermal denaturation of peptide-only samples (helicity, homodimer Tm); conditions: for change in fraction helicity from lactamisation: cyclised vs its linear form
cJun = cJun (Homo sapiens, UniProt P05412, S292Y); test: Isothermal titration calorimetry, Example 2 (PEAQ-ITC); type: binding; design: The same 60 amino acid c-Jun bZIP construct was used for all experiments; His-SUMO (N, cleaved yes); made in house; host or cells: E. coli; conditions: for ΔG / ΔH / −TΔS / Stoichiometry, n: ITC; for Stoichiometry, n: c-Jun-peptide interaction
Description: 2 μL injections of antagonist peptide at 25-200 μM were injected into the cell containing cJun at 2.5-20 μM. Software was used to record and analyse the heat change upon addition. Control experiments involved the injection of the antagonist peptide sample into the cell containing ITC buffer alone to determine the heat of dilution which was subtracted. The resulting binding data were fit to a one site binding model to extract the enthalpy change of binding (ΔH) and the equilibrium binding constant (KD), from which the free energy change of binding (ΔG) and the entropy change of binding (ΔS) was calculated (Wiseman et al., 1989). Thermodynamic parameters are presented as an average of two independent experiments with errors given as one standard deviation.

Serum stability (LC-MS) = type: in vitro ADME; conditions: human serum; for remaining at 96 h, 30 μM / metabolised at 24 h, 30 μM: 37° C.; for remaining at 96 h, 30 μM: after 96 hours, read-out: peak intensities relative to starting values; for metabolised at 24 h, 30 μM: read-out: degraded
Description: Serum Stability: Peptide stocks (600 μM) were prepared in water and 50 μL added to 950 μL human serum (Merck) before incubation at 37° C. […] The supernatant was analysed by LC-MS and quantified using the sum of the two largest charge state intensities (1: 9+, 10+; 23,24: 3+, 4+).

cJun bZIP [3] = target: T1, cJun bZIP; test: CD thermal denaturation
cJun bZIP [4] = target: T1, cJun bZIP; test: cell-based or functional assay
cJun bZIP [5] = target: T1, cJun bZIP; test: CD thermal denaturation, peptide 5 µM and c-Jun 5 µM

Molecule | Tm (° C.) (cJun bZIP [1]) | change in fraction helicity from lactamisation [2] | ΔG (cJun) | ΔH (cJun) | −TΔS (cJun) | Stoichiometry, n (cJun) | remaining at 96 h, 30 μM (Serum stability (LC-MS)) | metabolised at 24 h, 30 μM (Serum stability (LC-MS)) | IC50 CD (cJun bZIP [4]) | Tm (° C.) of peptide-c-Jun heterodimer (cJun bZIP [5]) | other results
CC[C@H](C)[C@H](NC(=O)[C@H](CCC(=O)O)NC(=O)[C@H](CCCCN)NC(=O)[C@H](CCCNC(=N)N)NC(=O)[C@H](CC(C)C)NC(=O)[C@H](C)NC(=O)[C@H](Cc1ccc(O)cc1)NC(=O)[C@H](CC(N)=O)NC(=O)[C@H](CCCNC(=N)N)NC(=O)[C@H](CCC(=O)O)NC(=O)[C@H](CCC(=O)O)NC(=O)[C@H](CC(C)C)NC(=O)[C@H](CCC(N)=O)NC(=O)[C@H](CCC(=O)O)NC(=O)[C@@H](NC(=O)[C@H](CCC(=O)O)NC(=O)[C@@H]1CC(=O)NCCCC[C@H](NC(=O)[C@H](CCC(=O)O)NC(=O)[C@H](CCC(=O)O)NC(=O)[C@@H](NC(=O)[C@@H](NC(=O)[C@H](CC(C)C)NC(=O)[C@H](CCC(=O)O)NC(=O)[C@H](CCC(=O)O)NC(=O)[C@H](C)NC(=O)[C@H](CCC(=O)O)NC(C)=O)C(C)C)C(C)C)C(=O)N[C@@H](C(C)C)C(=O)N[C@@H](CC(C)C)C(=O)N[C@@H](CCC(=O)O)C(=O)N1)[C@@H](C)CC)C(=O)N[C@@H](CCC(=O)O)C(=O)N[C@@H](CC(=O)O)C(=O)N[C@@H](CC(C)C)C(=O)N[C@@H](CCC(N)=O)C(=O)N[C@@H](CCCCN)C(=O)N[C@@H](CCC(N)=O)C(N)=O [Peptide 17] (Ac-EAEELVVEEKVLEDEIEQLEERNYALRKEIEDLQKQ-NH2; lactam 10-14) | 64.0 ± 0.8 °C | ~5% | -9.766 ± 0.0669 kcal/mol | -14.1 ± 0.402 kcal/mol | 4.336 ± 0.406 kcal/mol | 1.20 ± 0.02 | – | – | – | – | effect of lactamisation on antagonism (cJun/TRE DNA interaction; P=0.24): did not lead to a significant increase in antagonism
CC[C@H](C)[C@H](NC(=O)[C@H](CCC(=O)O)NC(=O)[C@H](CCCCN)NC(=O)[C@H](CCCNC(=N)N)NC(=O)[C@H](CC(C)C)NC(=O)[C@H](C)NC(=O)[C@H](Cc1ccc(O)cc1)NC(=O)[C@H](CC(N)=O)NC(=O)[C@H](CCCNC(=N)N)NC(=O)[C@H](CCC(=O)O)NC(=O)[C@H](CCC(=O)O)NC(=O)[C@H](CC(C)C)NC(=O)[C@H](CCC(N)=O)NC(=O)[C@H](CCC(=O)O)NC(=O)[C@@H](NC(=O)[C@H](CCC(=O)O)NC(=O)[C@H](CCC(=O)O)NC(=O)[C@H](CCC(=O)O)NC(=O)[C@H](CC(C)C)NC(=O)[C@@H](NC(=O)[C@H](CC(=O)O)NC(=O)[C@H](CCC(=O)O)NC(=O)[C@H](CCC(=O)O)NC(=O)[C@@H](NC(=O)[C@@H](NC(=O)[C@H](CC(C)C)NC(=O)[C@H](CCC(=O)O)NC(=O)[C@H](CCC(=O)O)NC(=O)[C@H](C)NC(=O)[C@H](CCC(=O)O)NC(C)=O)C(C)C)C(C)C)C(C)C)[C@@H](C)CC)C(=O)N[C@H]1CCCCNC(=O)C[C@@H](C(=O)N[C@@H](CCC(N)=O)C(N)=O)NC(=O)[C@H](CCC(N)=O)NC(=O)[C@H](CC(C)C)NC(=O)[C@H](CC(=O)O)NC1=O [Peptide 23] (Ac-EAEELVVEEDVLEEEIEQLEERNYALRKEIKDLQDQ-NH2; lactam 31-35 (inferred)) | 65.0 ± 1.4 °C | ~8% | -9.661 ± 0.117 kcal/mol | -23.6 ± 0.607 kcal/mol | 13.95 ± 0.619 kcal/mol | 0.97 ± 0.02 | 17% | 21% | – | – | fold lower IC50 than 11 (cJun/TRE DNA interaction; P=0.003): 1.6 fold; heterodimer ΔTm compared to parent sequence 11 (cJun bZIP [1]): ~8 °C; heterodimer ΔTm from lactamisation (cJun bZIP [1]; cyclised vs its linear form): ~9 °C; Kd (cJun): 0.0866 ± 0.017 µM
CC[C@H](C)[C@H](NC(=O)[C@H](CCC(=O)O)NC(=O)[C@H](CCCCN)NC(=O)[C@H](CCCNC(=N)N)NC(=O)[C@H](CC(C)C)NC(=O)[C@H](C)NC(=O)[C@H](Cc1ccc(O)cc1)NC(=O)[C@H](CC(N)=O)NC(=O)[C@H](CCCNC(=N)N)NC(=O)[C@H](CCC(=O)O)NC(=O)[C@H](CCC(=O)O)NC(=O)[C@H](CC(C)C)NC(=O)[C@H](CCC(N)=O)NC(=O)[C@H](CCC(=O)O)NC(=O)[C@@H](NC(=O)[C@H](CCC(=O)O)NC(=O)[C@@H]1CC(=O)NCCCC[C@H](NC(=O)[C@H](CCC(=O)O)NC(=O)[C@H](CCC(=O)O)NC(=O)[C@@H](NC(=O)[C@@H](NC(=O)[C@H](CC(C)C)NC(=O)[C@H](CCC(=O)O)NC(=O)[C@H](CCC(=O)O)NC(=O)[C@H](C)NC(=O)[C@H](CCC(=O)O)NC(C)=O)C(C)C)C(C)C)C(=O)N[C@@H](C(C)C)C(=O)N[C@@H](CC(C)C)C(=O)N[C@@H](CCC(=O)O)C(=O)N1)[C@@H](C)CC)C(=O)N[C@H]1CCCCNC(=O)C[C@@H](C(=O)N[C@@H](CCC(N)=O)C(N)=O)NC(=O)[C@H](CCC(N)=O)NC(=O)[C@H](CC(C)C)NC(=O)[C@H](CC(=O)O)NC1=O [Peptide 24] (Ac-EAEELVVEEKVLEDEIEQLEERNYALRKEIKDLQDQ-NH2; lactam 10-14, 31-35 (inferred)) | 63.2 ± 1.3 °C | – | -10.95 ± 0.241 kcal/mol | -30.55 ± 0.624 kcal/mol | 19.6 ± 0.669 kcal/mol | 1.05 ± 0.01 | 35% | 7% | – | – | change in IC50 compared to the best single lactamised peptide (cJun/TRE DNA interaction; P=0.02): significant decrease in IC50 value; serum stability (Serum stability (LC-MS); LC-MS): highest stability; change in heterodimer Tm compared to the best single lactamised peptide (cJun bZIP [1]): no significant change in heterodimer Tm; increase in peptide helicity from 1 [2]: 20%; more helical compared to the best single lactamised peptide [2]: ~4%
B1 | – | – | – | – | – | – | – | – | 81.1 µM | 59.4 ° C. | heterodimer ΔTm from lactamisation (15 against linear 14) (cJun bZIP [3]): ~2 ° C.
B2 | – | – | – | – | – | – | – | – | 92.5 µM | 58.5 ° C. | heterodimer ΔTm against parent sequence 11 (cJun bZIP [3]): ~1 ° C.
